From patent publication US12263248B2, “Compounds and compositions for intracellular delivery of therapeutic agents” (ModernaTX, Inc., priority 2018, dated 2025)

Experiments:
[1] = Particle size and polydispersity index of nanoparticle compositions (Zetasizer Nano ZS); format: physicochemical
Description: A Zetasizer Nano ZS (Malvern Instruments Ltd, Malvern, Worcestershire, UK) can be used to determine the particle size, the polydispersity index (PDI) and the zeta potential of the nanoparticle compositions in 1×PBS in determining particle size and 15 mM PBS in determining zeta potential.

[2] = Encapsulation efficiency of RNA (QUANT-IT RIBOGREEN RNA assay); format: physicochemical
Description: For nanoparticle compositions including an RNA, a QUANT-IT™ RIBOGREEN® RNA assay (Invitrogen Corporation Carlsbad, CA) can be used to evaluate the encapsulation of an RNA by the nanoparticle composition. The samples are diluted to a concentration of approximately […] in a TE buffer solution (10 mM Tris-HCl, 1 mM EDTA, pH 7.5). 50 μL of the diluted samples are transferred to a polystyrene 96 well plate and either 50 μL of TE buffer or 50 μL of a 2% Triton X-100 solution is added to the wells. The plate is incubated at a temperature of 37° C. for 15 minutes. The RIBOGREEN® reagent is diluted 1:100 in TE buffer, and 100 μL of this solution is added to each well. The fluorescence intensity can be measured using a fluorescence plate reader (Wallac Victor 1420 Multilabel Counter; Perkin Elmer, Waltham, MA) at an excitation wavelength of, for example, about 480 nm and an emission wavelength of, for example, about 520 nm. The fluorescence values of the reagent blank are subtracted from that of each of the samples and the percentage of free RNA is determined by dividing the fluorescence intensity of the intact sample (without addition of Triton X-100) by the fluorescence value of the disrupted sample (caused by the addition of Triton X-100).

luciferase (Luc) mRNA [3] = assay: Luc expression in liver, lung, spleen and femur 6 hours after intravenous administration; format: in vivo; conditions: mice, 0.5 mpk; for Total Flux Liver / Total Flux Lung / Total Flux Spleen: intravenous; for Flux in the spleen / Flux in the liver: i.v., in words
Description: The efficacy of the nanoparticle compositions presented in Table 1A was further evaluated by measuring the expression of modified luciferase in the liver, lung, spleen, and femur upon administration of a given composition. Formulations were administered intravenously to mice (n=3) at a dosage of 0.5 mpk and bioluminescence measured after 6 hours. The standard MC3 formulation and a PBS control were also tested. […] Flux in the liver was lowest for compositions including Compounds 58, 59, 137, and 141. Flux in the spleen was highest for compositions including Compounds 4, 7, 33, 34, 48, 53, 108, 129, 130, and 148, and lowest for compositions including Compounds 9, 59, 124, and 141.
(§1) Whole body and ex vivo organ bioluminescent imaging of mice: CD-1 mice were injected 15 minutes prior to the imaging timepoint intraperitoneally (IP) with 200 μL Xenolight D-luciferin K+ salt, diluted in PBS just prior to use to a concentration of 15 mg/mL. Ex vivo imaging of organs was completed within 25 minutes of luciferin administration. All images were quantified by region of interest for total flux.

luciferase (Luc) mRNA [4] = assay: Luc expression, whole body bioluminescence after intravenous administration to mice; format: in vivo; conditions: for Total Flux 3 hours / Total Flux 6 hours / Total Flux 24 hours: Luc mRNA; for Fold increase in total body Luc Flux relative to MC3 at 6 h: Table 3A; for flux at all timepoints measured: 3, 6 and 24 hour, in words
Description: In order to monitor how effectively various nanoparticle compositions deliver therapeutic and/or prophylactics to targeted cells, different nanoparticle compositions including a particular therapeutic and/or prophylactic (for example, a modified or naturally occurring RNA such as an mRNA) are prepared and administered to rodent populations. Mice are intravenously, intramuscularly, intraarterially, or intratumorally administered a single dose including a nanoparticle composition with a formulation such as those provided in Example 3. In some instances, mice may be made to inhale doses. Dose sizes may range from 0.001 mg/kg to 10 mg/kg, where 10 mg/kg describes a dose including 10 mg of a therapeutic and/or prophylactic in a nanoparticle composition for each 1 kg of body mass of the mouse. A control composition including PBS may also be employed.
Upon administration of nanoparticle compositions to mice, dose delivery profiles, dose responses, and toxicity of particular formulations and doses thereof can be measured by enzyme-linked immunosorbent assays (ELISA), bioluminescent imaging, or other methods. For nanoparticle compositions including mRNA, time courses of protein expression can also be evaluated. Samples collected from the rodents for evaluation may include blood, sera, and tissue (for example, muscle tissue from the site of an intramuscular injection and internal tissue); sample collection may involve sacrifice of the animals.
The efficacy of the nanoparticle compositions presented in Table 1A was evaluated with a bioluminescence study. Formulations were administered intravenously to mice (n=6) at a dosage of 0.5 mg/kg (mpk) and bioluminescence measured at 3, 6, and 24 hour time points. The standard MC3 formulation and, in some instances, a control (e.g., a PBS control) were evaluated for comparison. […] In general, flux decreased as time progressed to less than 10% of the initial flux.
as §1

[5] = Table 1A, lipid:DSPC:cholesterol:PEG-DMG 50:10:38.5:1.5 mol %
[6] = Table 1B, formulated with hEPO mRNA

SMILES | Size (nm) [1, 5] [nm] | EE (%) ([2]; Table 1A) | PDI ([1]; Table 1A) | Total Flux Liver (luciferase (Luc) mRNA [3]) | Total Flux Lung (luciferase (Luc) mRNA [3]) | Total Flux Spleen (luciferase (Luc) mRNA [3]) | Total Flux 3 hours (luciferase (Luc) mRNA [4]; mice, i.v., 0.5 mg/kg) | Total Flux 6 hours (luciferase (Luc) mRNA [4]; mice, i.v., 0.5 mg/kg) | Total Flux 24 hours (luciferase (Luc) mRNA [4]; mice, i.v., 0.5 mg/kg) | Fold increase in total body Luc Flux relative to MC3 at 6 h (luciferase (Luc) mRNA [4]; i.v. administration) | Flux in the spleen (luciferase (Luc) mRNA [3]) | Flux in the liver (luciferase (Luc) mRNA [3]) | flux at all timepoints measured (luciferase (Luc) mRNA [4]; mice, i.v., 0.5 mg/kg) | 6 h Lipid/MC3 Avg. Luc Expression (luciferase (Luc) mRNA [4]; Table 3C, i.v. administration) | Fold increase AUC Lipid/MC3 (luciferase (Luc) mRNA [4]; Table 3C, i.v. administration) | AUC (h * p/s) (luciferase (Luc) mRNA [4]; Table 3C, i.v. administration, Luc) | total flux at 3 hours (luciferase (Luc) mRNA [4]; mice, i.v., 0.5 mg/kg, comparison in words) | PDI [1, 6] | Size (nm) [1, 6] [nm] | EE (%) [2, 6] [%]
CCCCCCCCCOC(=O)CCCCCCCN(CCC#N)CCCCCCCC(=O)OC(CCCCCCCC)CCCCCCCC [Compound 21, Heptadecan-9-yl 8-((2-cyanoethyl)(8-(nonyloxy)-8-oxooctyl)amino) octanoate] | 53.5 | −15.1 | – | – | – | – | – | – | – | – | – | – | – | – | – | – | – | – | – | –
CCCCCCCCC(CCCCCCCC)OC(=O)CCCCCCCN(CCO)CCCCCCCCC1CC1CCCCCCCC (centres unmarked) [Compound 47, heptadecan-9-yl 8-((2-hydroxyethyl)(8-(2-octylcyclopropyl)octyl)amino)octanoate] | 80.6 | 96.40 | 0.10 | 4.86E+09 | 8.71E+06 | 8.33E+07 | 6.55E+10 | 5.38E+10 | 2.09E+09 | – | – | – | – | – | – | – | – | – | – | –
CCCCCCCCC(CCCCCCCC)OC(=O)CCCCCCCN(CCO)CCCC(=O)OCCCC [Compound 51, heptadecan-9-yl 8-((4-butoxy-4-oxobutyl)(2-hydroxyethyl)amino) octanoate] | 148.8 | 89.83 | 0.17 | 2.49E+07 | 3.67E+05 | 2.80E+07 | 1.34E+08 | 2.80E+08 | 6.20E+06 | 0.025 | – | – | – | – | – | – | – | – | – | –
CCCCCCCCC(CCCCCCCC)OC(=O)CCCCCCCN(CCO)CCCC(=O)OCCCCC [Compound 52, heptadecan-9-yl 8-((2-hydroxyethyl)(4-oxo-4-(pentyloxy)butyl)amino) octanoate] | 130.5 | 93.25 | 0.19 | 5.86E+08 | 2.80E+06 | 8.30E+07 | 2.91E+09 | 4.63E+09 | 2.55E+07 | – | – | – | – | – | – | – | – | – | – | –
CCCCCCCCC(CCCCCCCC)OC(=O)CCCCCCCN(CCO)CCCC(=O)OCCCCCC [Compound 53, heptadecan-9-yl 8-((4-(hexyloxy)-4-oxobutyl)(2-hydroxyethyl)amino) octanoate] | 125.4 | 95.8 | 0.13 | 2.02E+09 | 2.47E+07 | 8.54E+08 | 1.91E+10 | 2.32E+10 | 1.01E+09 | 2.11 | highest | – | – | – | – | – | – | – | – | –
CCCCCCCCCOC(=O)CCCCCCCN(CCO)CCCCCCCC(=O)OC(CCCCCC)CCCCCC [Compound 56, nonyl 8-((2-hydroxyethyl)(8-oxo-8-(tridecan-7-yloxy)octyl)amino) octanoate] | 112.1 | 95.18 | 0.17 | 1.04E+09 | 4.62E+06 | 1.98E+08 | 1.27E+10 | 8.06E+09 | 2.53E+08 | 0.733 | – | – | – | – | – | – | – | – | – | –
CCCCCCCCCOC(=O)CCCCCCCN(CCO)CCCCCCCC(=O)OC(CCC)CCC [Compound 58, heptan-4-yl 8-((2-hydroxyethyl)(8-(nonyloxy)-8-oxooctyl)amino) octanoate] | 130.8 | 92.54 | 0.14 | 8.71E+04 | 1.21E+04 | 2.38E+05 | 5.69E+05 | 7.60E+05 | 3.64E+05 | 0.00007 | – | lowest | significantly lower flux | – | – | – | – | – | – | –
CCCCCCCCCOC(=O)CCCCCCCN(CCO)CCCCCCCC(=O)OC(CC)CC [Compound 59, nonyl 8-((2-hydroxyethyl)(8-oxo-8-(pentan-3-yloxy)octyl)amino) octanoate] | 237.0 | 94.44 | 0.24 | 2.87E+05 | 4.41E+04 | 9.68E+04 | 2.75E+05 | 2.79E+05 | 1.45E+05 | 0.00003 | lowest | lowest | significantly lower flux | – | – | – | – | – | – | –
CCCCCCCCC(CCCCCCCC)OC(=O)CCCCCCCN(CCO)CCCCCCCC(=O)OC1CCC(CCCCC)CC1 (centres unmarked) [Compound 66, Heptadecan-9-yl 8-((2-hydroxyethyl)(8-oxo-8-((4-pentylcyclohexyl)oxy)octyl)amino)octanoate] | 76.7 | 96.52 | 0.120 | 5.01E+09 | 4.20E+06 | 2.00E+07 | 9.66E+10 | 4.577E+10 | 5.56E+09 | 0.103 | – | – | – | 6.28 | 8.20 | 6.76E+11 | highest | – | – | –
CCCCCCCCCOC(=O)CCCCCCCN(CCCCCCCC(=O)OC(CCCCCCCC)CCCCCCCC)CCCn1ccc(N)nc1=O [Compound 115, Heptadecan-9-yl 8-((3-(4-amino-2-oxopyrimidin-1(2H)-yl)propyl)(8-(nonyloxy)-8-oxooctyl)amino)octanoate] | 64.5 | 99.7 | 0.11 | – | – | – | 2.13E+07 | 2.91E+07 | – | – | – | – | – | – | – | – | – | – | – | –
CCCCCCCCCOC(=O)CCCCCCCN(CCCCCCCC(=O)OC(CCCCCCCC)CCCCCCCC)CCC(=O)O [Compound 125, 3-((8-(Heptadecan-9-yloxy)-8-oxooctyl)(8-(nonyloxy)-8-oxooctyl)amino)propanoic acid] | 90.9 | 79.6 | 0.16 | – | – | – | 2.44E+05 | 3.16E+05 | – | – | – | – | significantly lower flux | – | – | – | – | – | – | –
CCCCCCCCCOC(=O)CCCCCCCN(CCCCCCCC(=O)OC(CCCCCCCC)CCCCCCCC)CCCC(=O)NC [Compound 239, Heptadecan-9-yl 8-((4-(methylamino)-4-oxobutyl)(8-(nonyloxy)-8-oxooctyl)amino)octanoate] | 55.8 | 90.42 | 0.12 | – | – | – | – | – | – | – | – | – | – | – | – | – | – | 0.14 | 71.3 | 82.6
